From the METLIN SMRT retention time set (Domingo-Almenara et al. 2019)

Test: gradient 5% acetonitrile 3 min, to 50% in 2 min, to 85% in 15 min, held 3 min, 100 µL/min
Conditions: column: Zorbax Extend-C18 2.1 x 50 mm; eluents: water / acetonitrile, 0.1% formic acid
Outline: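 Using water and acetonitrile that each contained 0.1% formic acid, mixtures of ~100 pure standards were separated at 100 μL/min on a Zorbax Extend-C18 column (2.1 × 50 mm, 1.8 μm). The HPLC fed a quadrupole time-of-flight mass spectrometer working in positive and negative ionization mode, with dead and dwell volumes of 40 μL and 900 μL. Data were acquired over 3 months. Retention time was read from computationally picked adduct peaks after manual inspection of each.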

SMILES | RP-LC retention time [s]
COc1ccc(-c2nnc(SCC(=O)Nc3ccc(S(N)(=O)=O)cc3)o2)cc1 | 736
CN1c2cc(C(=O)NC3CCCC3)ccc2C(=O)N2CCCCC21 (stereo not given) | 767
Cc1nnc(NC(=O)CCc2csc(NC(=O)c3ccco3)n2)s1 | 630
COc1cc(NS(=O)(=O)c2ccc(Nc3nc(-c4ccc(C)cc4)cs3)cc2)nc(OC)n1 | 1100
COc1ccc(Cl)cc1S(=O)(=O)N1CCC(n2cnnc2C)CC1 | 684
COCc1noc([C@@H]2CN(Cc3ccc(Br)o3)C[C@H]2C(N)=O)n1 | 565
CCCCOC(=O)CC1C(=O)NCCN1C(=O)c1cc(Br)ccc1OCC (stereo not given) | 841
O=C(NCc1cccc(F)c1)c1cn2c(n1)CCCC2 | 584
CCc1cccc(NC(=O)Nc2ccc3nncn3c2)c1 | 747
O=S(=O)(c1ccc(-c2noc(-c3cccc(Br)c3)n2)cc1)N1CCOCC1 | 1190
COc1ccc(-c2cn3ccn(-c4ccc(OC)c(OC)c4)c(=O)c3n2)cc1 | 732
O=C(Nc1nc(-c2ccc3ccccc3c2)cs1)c1ccc2c(c1)OCO2 | 1160
Cn1c(=O)n(C)c2cc(CNCCc3ccc(F)cc3)ccc21 | 609
COc1cc(OC)cc(C(=O)N(C)CCc2noc(C3CCCCC3)n2)c1 | 926
CCCn1c(=O)c(C)nc2cc(-c3noc(Cc4ccc(OC)c(OC)c4)n3)ccc21 | 930
Cc1ccc(-c2nnc(Cc3nc(-c4ccc(Cl)cc4)no3)o2)cc1C | 1220
CCCS(=O)(=O)N1CC(n2cc(C(=O)NCC3CC3)nn2)C1 | 722
COc1ccc(C)cc1NC(=O)Cn1c(N2CCOCC2)nc(C)cc1=O | 719
Cc1ccc(-c2nc3cnc(Br)cn3c2Nc2ccc3c(c2)OCO3)cc1 | 982

SMILES | RP-LC retention time [s]
Cc1nnsc1C(=O)Nc1ccc([N+](=O)[O-])cc1C(F)(F)F | 868
CCN(CC)c1nc2ccsc2c(=O)n1CC(=O)NCc1ccc(F)cc1F | 868
O=C(CCNc1cnc2cnccn12)NCCC1=CCCCC1 | 626
Cc1ccc(NC(=O)C2CCCN2S(=O)(=O)c2cc3c(cc2C)NC(=O)CO3)cc1Cl (stereo not given) | 791
C=CCN(CC=C)S(=O)(=O)c1ccc2nc(NC(=O)Cc3cccs3)sc2c1 | 936
O=C(Nc1cnc(N2CCCCC2)nc1)c1cccs1 | 842
Cc1oc(-c2[nH]ncc2C(=O)N(C)C)cc1S(=O)(=O)NCc1cccnc1 | 559
COc1ccc(C)cc1Nc1ncnc(N)c1[N+](=O)[O-] | 780
O=C(Cn1nc2n(c1=O)CCCC2)Nc1ccc2c(c1)OCCO2 | 635
Cc1[nH]c(=O)[nH]c(=O)c1S(=O)(=O)NC(C)C | 581
O=C(c1ccoc1)N1CCCC(c2nnc3n2CCN(C2CCCC2)C3)C1 (stereo not given) | 562
Cc1ccc(Nc2c(-c3cccc(Br)c3)nc3ccc(C)cn23)cc1 | 830
COC(=O)CS(=O)c1ccc(C(F)(F)F)cc1[N+](=O)[O-] (stereo not given) | 730
Cc1cccc(NC(=O)c2[nH]c(C)c(S(=O)(=O)N3CCCC3)c2C)c1C | 858
Cc1cc2nc(C(=O)Nc3cc(F)ccc3C)cc(C)n2n1 | 1050
COc1ccc(-c2c(C)noc2NC(C)=O)cc1S(=O)(=O)Nc1ccc(F)cc1C | 770
COc1ccc(N2CCN(c3nc(C(=O)NCCN4CCOCC4)cs3)CC2)cc1 | 615
CCOC(=O)Nc1c(Cl)n(C)c(=O)n(C)c1=O | 648
COc1ccc(-c2nc3nc(C)cc(C)n3c2Nc2c(C)cccc2C)cc1 | 766

Next, values leading:

RP-LC retention time [s] | SMILES
903 | Cn1nc(-c2nnc(-c3ccccc3F)o2)c2c1CCN(S(=O)(=O)c1ccccc1F)C2
605 | Cc1ccc2nc(-c3cccc(S(=O)(=O)N4CCOCC4)c3)cn2c1
639 | O=C(NCc1ccc(F)cc1F)C1CCN(c2cn[nH]c(=O)c2)CC1
1140 | Cc1cccc(-c2nc(-c3nnn(-c4ccccc4)c3C)no2)c1
767 | Cc1ccc(NC(=O)Nc2ccccc2)c(=O)n1CC(=O)N1CCCC1
561 | CN1CCN(c2nc3ccc(NC(=O)C4CC(=O)N(c5ccccc5)C4)cc3s2)CC1 (stereo not given)
646 | CC(C)CNC(=O)c1cn(-c2cc(-c3nc(C4CC4)no3)ccn2)cn1
848 | Cc1ccc(-c2noc(-c3ccc(N4CCN(C5CCCCC5)CC4)nc3)n2)cc1
756 | CSc1cccc(NC(=O)COc2cc(C(F)(F)F)c3c(C)nn(C)c3n2)c1
1240 | CCOC(=O)C1CCC(CNC(=O)Nc2ccc(-c3nc(-c4ccc(C)cc4C)co3)cc2)CC1 (stereo not given)
705 | CN1C(=O)NC2(CCN(C(=O)C3c4ccccc4Oc4ccccc43)CC2)C1=O
614 | Cc1nc2cccnc2n1CC1CCCN(C(=O)Nc2ccc3c(c2)OCCO3)C1 (stereo not given)
964 | COC(=O)c1cn(CC(=O)N2CCc3ccccc3C2)c2ccccc12
548 | CN(C)CCNC(=O)c1csc(-c2ccc(N3CCCC3)nc2)n1
891 | CCOC(=O)N1CCN(c2ncc(S(=O)(=O)c3ccc(C)c(C)c3)c(N)n2)CC1
836 | O=C(NCCn1c(=O)n(Cc2ccccc2)c2cccnc21)c1nccc2ccccc12
1020 | C=CCNC(=O)c1c(O)c2cccnc2n(-c2ccc(OC)cc2)c1=O
887 | Cc1ccc(-c2nc3sc(N4CCCCC4)nn3c2NC(=O)c2ccnn2C)cc1
691 | CCc1ccc(C(=O)N2CCN(c3nnc4cccc(C)n34)CC2)cc1
974 | Cc1ccc(C(=O)N2CCc3cc(-c4ccno4)ccc32)cc1
1210 | Cc1cc(C)cc(Oc2nccn3c(=O)n(CC(=O)NCc4ccco4)nc23)c1
635 | O=C(c1ccsc1)N1CCN(c2nnc3c(Cl)cccn23)CC1
569 | N#Cc1ccc(CN2C[C@@H](CO)[C@H](c3ccccn3)C2)cc1
751 | CC(Oc1ccccc1)c1nc(-c2ccc3c(c2)ncn3CCC(=O)N2CCCC2)no1 (stereo not given)
722 | COC(=O)c1c(C)[nH]c(C(=O)N2CCC(CC(=O)NCCc3c[nH]c4ccccc34)CC2)c1C
982 | Fc1ccccc1-c1noc(N2CCCCC2)n1

RP-LC retention time [s] | SMILES
657 | CC(C)N1CCC(F)(c2nc(-c3ccccc3)no2)CC1
1010 | Cc1cccc(-c2nnc(-c3nc(NCc4ccco4)c4ccccc4n3)o2)c1
705 | CCNC(=O)N1CC(Oc2cccc(-c3nc(C)no3)c2)C1
609 | CCCc1cc(N2CCN(C(=O)c3ccc(C#N)cc3)CC2)nc2nncn12
989 | Cc1nc(-c2ccccc2)cc2nn(CC(=O)NC(C)CCc3ccccc3)c(=O)n12 (stereo not given)
1170 | CCOC(=O)Cc1sc(Nc2nc3ccccc3s2)nc1-c1ccccc1
920 | COc1ccc(NC(=O)c2ccc(Cl)s2)c2ccccc12
713 | COc1ccc(C(=O)N2C(C(=O)NC(C)C)COC23CCN(C(=O)CC(C)(C)C)CC3)cc1 (stereo not given)
867 | CC1=C(c2ccc(C)cc2)S(=O)(=O)N=C1N1CCC(NC(=O)Cc2ccsc2)CC1
689 | CCCn1cc(-c2ccncc2)cc1C(=O)NCc1ccccc1C
627 | CC(C)Cn1c(CC2CCN(C(=O)c3n[nH]c4ccccc34)C2)nc2cccnc21 (stereo not given)
715 | Cn1nc(-c2ccncc2)nc1C1CN(S(=O)(=O)c2cccc(C(F)(F)F)c2)C1
942 | O=C(CCn1nnc2cc(-c3noc(COc4ccc(Cl)cc4)n3)ccc21)N1CCCC1
595 | COc1cccc(-c2nc(-c3ccc4c(c3)nnn4CCN(C)C)no2)c1
976 | O=C(NCc1csc(-c2ccccc2)n1)C1CCN(S(=O)(=O)c2ccc(Cl)cc2)CC1
1100 | Cc1ccc(CN2C(=O)N(c3cccc(F)c3)c3ncccc3S2(=O)=O)cc1
603 | O=C1CCCc2cc(S(=O)(=O)NCC3CCN(Cc4ccc(F)cc4)CC3)ccc2N1
720 | COCCc1nncn1C1CCN(S(=O)(=O)c2ccccc2C(F)(F)F)CC1
766 | O=C(c1ccc2c(c1)nnn2Cc1ccccc1)N1CCN(c2ncccn2)CC1
776 | COc1ccc(NC(=O)N2CCC3(C2)C(=O)N(C)c2ccccc23)c(OC)c1 (stereo not given)
834 | CC(C)C(=O)N1CCN(c2ccc(=O)n(-c3ccc(C(C)C)cc3)n2)CC1
865 | CCc1noc(-c2ccc(-n3cnc(C(=O)NC4CCCC4)c3)nc2)n1
748 | Cc1ccc(S(=O)(=O)N2CCC(C(=O)NCc3cscn3)CC2)cc1C
687 | Cc1cccc(NC(=O)Cn2cnc(-c3nc(C)cs3)c2)c1
918 | COc1cccc(OCC2c3ccsc3CCN2C(=O)CN(C(=O)NC(C)C)C2CC2)c1 (stereo not given)
612 | O=C(NC1CCN(c2cc(-c3cccs3)[nH]n2)C1)c1ccncc1 (stereo not given)
